The nature of data set [1]: Intrinsic clearance in human hepatocytes assessed per 10^6 cells. In kind it is ADME, cell-based, Hepatocyte.
A further data set has as its target T1, Cytochrome P450 1A2 (Homo sapiens, UniProt P05177).
T1 sequence (P05177 whole entry): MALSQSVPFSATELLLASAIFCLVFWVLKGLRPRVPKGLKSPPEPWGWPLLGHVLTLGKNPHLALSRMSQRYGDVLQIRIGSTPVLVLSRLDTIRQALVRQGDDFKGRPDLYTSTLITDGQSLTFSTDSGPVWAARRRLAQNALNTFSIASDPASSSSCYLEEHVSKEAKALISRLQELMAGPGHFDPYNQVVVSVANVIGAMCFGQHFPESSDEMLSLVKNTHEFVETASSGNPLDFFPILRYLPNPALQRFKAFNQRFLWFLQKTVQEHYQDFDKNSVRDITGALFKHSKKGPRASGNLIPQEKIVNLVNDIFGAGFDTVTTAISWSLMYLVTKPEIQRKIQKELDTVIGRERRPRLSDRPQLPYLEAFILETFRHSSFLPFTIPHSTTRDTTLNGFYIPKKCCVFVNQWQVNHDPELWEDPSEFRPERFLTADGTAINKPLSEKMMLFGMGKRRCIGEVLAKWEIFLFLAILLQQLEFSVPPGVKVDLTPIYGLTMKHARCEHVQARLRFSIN
Briefly: Induction of CYP1A2 (unknown origin). In kind it is ADME.

The next data set deals with T2, Cytochrome P450 1A1 (Homo sapiens, UniProt P04798).
T2 sequence (P04798 whole entry): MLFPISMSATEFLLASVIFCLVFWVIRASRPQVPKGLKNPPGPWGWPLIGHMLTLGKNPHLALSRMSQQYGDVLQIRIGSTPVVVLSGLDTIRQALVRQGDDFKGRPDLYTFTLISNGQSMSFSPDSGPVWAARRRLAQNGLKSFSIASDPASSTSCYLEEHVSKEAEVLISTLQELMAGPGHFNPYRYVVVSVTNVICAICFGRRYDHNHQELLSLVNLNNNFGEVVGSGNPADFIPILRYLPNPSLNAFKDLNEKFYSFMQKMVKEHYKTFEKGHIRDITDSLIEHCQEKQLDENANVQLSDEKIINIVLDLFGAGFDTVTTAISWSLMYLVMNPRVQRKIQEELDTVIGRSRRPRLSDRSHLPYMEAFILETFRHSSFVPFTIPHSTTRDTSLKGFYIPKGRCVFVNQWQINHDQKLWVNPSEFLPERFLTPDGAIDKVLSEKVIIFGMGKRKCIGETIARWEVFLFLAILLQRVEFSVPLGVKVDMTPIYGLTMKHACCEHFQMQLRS
Kind of data set: Induction of CYP1A1 (unknown origin). Format: ADME.

The nature of data set [2]: Lipophilicity, log D of the compound at pH 7.4 at 25 degC. Format: physicochemical. The note with it: buffer.
The target of a further data set is Cytochrome P450 3A4 (Homo sapiens, UniProt P08684). Briefly: Induction of CYP3A4 (unknown origin). Format: ADME.
Sequence of Cytochrome P450 3A4 (P08684 whole entry): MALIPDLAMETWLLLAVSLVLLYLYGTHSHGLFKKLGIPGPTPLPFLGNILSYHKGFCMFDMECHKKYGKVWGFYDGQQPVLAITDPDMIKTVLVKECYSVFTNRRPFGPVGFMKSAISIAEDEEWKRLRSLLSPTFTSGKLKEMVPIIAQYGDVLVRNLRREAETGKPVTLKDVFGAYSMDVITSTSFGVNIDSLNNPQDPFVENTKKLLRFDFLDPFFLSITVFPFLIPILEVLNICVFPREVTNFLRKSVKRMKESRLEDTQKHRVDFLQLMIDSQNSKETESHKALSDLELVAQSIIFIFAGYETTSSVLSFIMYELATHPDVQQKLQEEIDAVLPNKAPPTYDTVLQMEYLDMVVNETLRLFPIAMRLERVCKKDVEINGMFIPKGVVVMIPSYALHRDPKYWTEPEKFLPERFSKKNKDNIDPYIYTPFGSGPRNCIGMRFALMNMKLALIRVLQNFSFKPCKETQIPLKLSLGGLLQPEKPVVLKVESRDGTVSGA
Data set [3] can be described thus: Aqueous solubility of the compound at pH 7.4 at 25 degC. In kind it is physicochemical.
Data set [4] can be described thus: Drug metabolism in human liver microsomes assessed as CYP450/FMO-mediated oxidative metabolism at 5 uM after 20 mins in presence of NADPH. In kind it is ADME. The note with it: read-out: Drug metabolism. (In general: Liver microsomes are a subcellular fraction often used to study metabolism.)
A short description of data set [5]: Drug metabolism in Swiss CD1 mouse liver microsomes assessed as CYP450/FMO-mediated oxidative metabolism at 5 uM after 20 mins in presence of NADPH. As to conditions: read-out: Drug metabolism. Format: ADME.
Data set [6] is described as follows: Permeability across apical to basolateral side in human Caco2/TC7 cells at 20 uM after 120 mins by UPLC/ESI-MS-MS analysis. Format: ADME, cell-based. The note with it: Caco-2. On the technique in general: Caco-2 cells form a polarised layer with tight junctions and transporters.
Data set [7] concerns the target Voltage-gated inwardly rectifying potassium channel KCNH2 (Homo sapiens, UniProt Q12809). Kind of data set: Inhibition of recombinant human ERG expressed in CHO cells by patch clamp method. Format: cell-based. On the technique in general: Patch clamp records ionic current or voltage across a cell membrane.
The nature of data set [8]: Drug metabolism in Sprague-Dawley rat liver microsomes assessed as CYP450/FMO-mediated oxidative metabolism at 5 uM after 20 mins in presence of NADPH. Format: ADME. As to conditions: read-out: Drug metabolism.

The text below walks through data of ChEMBL document CHEMBL3860098, “Sulfamide as Zinc Binding Motif in Small Molecule Inhibitors of Activated Thrombin Activatable Fibrinolysis Inhibitor (TAFIa)” (J Med Chem, 2016).

The structures appear in SMILES notation.

A word on the logD: it is the decadic logarithm of the distribution of all forms, ionised or not, between an organic phase and buffer at a given pH. Low values mean lower lipophilicity, high ones higher lipophilicity. One may read the solubility as the concentration that dissolves in the medium under given conditions. By Papp A→B is commonly meant the apparent permeability from the apical to the basolateral side of a cell layer. High values mean fast passage, low ones slow passage. A word on the IC50: it is the midpoint of a concentration-inhibition curve.

Sequence of Voltage-gated inwardly rectifying potassium channel KCNH2 (Q12809 whole entry): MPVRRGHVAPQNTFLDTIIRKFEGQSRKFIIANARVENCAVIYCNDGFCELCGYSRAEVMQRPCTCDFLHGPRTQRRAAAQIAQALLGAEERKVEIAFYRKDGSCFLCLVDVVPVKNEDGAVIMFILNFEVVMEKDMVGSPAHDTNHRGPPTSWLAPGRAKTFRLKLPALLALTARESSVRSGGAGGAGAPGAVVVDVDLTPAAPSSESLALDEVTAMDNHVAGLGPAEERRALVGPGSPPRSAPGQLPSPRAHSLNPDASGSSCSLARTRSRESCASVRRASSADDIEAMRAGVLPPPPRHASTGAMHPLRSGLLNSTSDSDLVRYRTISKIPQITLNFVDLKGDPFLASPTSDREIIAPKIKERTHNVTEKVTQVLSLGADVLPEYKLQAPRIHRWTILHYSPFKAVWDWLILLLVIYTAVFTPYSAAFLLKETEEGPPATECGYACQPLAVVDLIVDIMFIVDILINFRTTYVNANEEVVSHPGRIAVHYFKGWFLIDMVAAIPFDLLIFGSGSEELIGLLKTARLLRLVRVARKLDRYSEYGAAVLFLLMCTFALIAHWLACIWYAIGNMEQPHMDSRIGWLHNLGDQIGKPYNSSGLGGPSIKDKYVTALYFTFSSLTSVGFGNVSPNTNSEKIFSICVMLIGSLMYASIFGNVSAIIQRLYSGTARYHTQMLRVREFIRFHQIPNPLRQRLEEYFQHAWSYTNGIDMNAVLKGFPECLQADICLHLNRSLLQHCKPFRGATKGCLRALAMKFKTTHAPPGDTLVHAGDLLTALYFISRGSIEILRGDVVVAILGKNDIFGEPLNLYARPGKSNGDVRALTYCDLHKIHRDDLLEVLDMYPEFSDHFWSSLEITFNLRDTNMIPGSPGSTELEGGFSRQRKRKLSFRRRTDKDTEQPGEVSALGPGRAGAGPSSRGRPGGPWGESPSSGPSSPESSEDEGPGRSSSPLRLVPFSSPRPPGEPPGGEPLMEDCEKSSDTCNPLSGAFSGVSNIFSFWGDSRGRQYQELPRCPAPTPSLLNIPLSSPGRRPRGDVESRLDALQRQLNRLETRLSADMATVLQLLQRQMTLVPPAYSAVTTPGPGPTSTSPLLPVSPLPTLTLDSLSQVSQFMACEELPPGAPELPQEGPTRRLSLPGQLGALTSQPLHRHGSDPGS

`CC1(C)[C@@H]2CC[C@@]1(C)[C@@H](NC(=O)[C@H](CC1CCCCC1)NS(=O)(=O)N[C@@H](CCCCN)C(=O)O)C2.Cl`: in [1], the CLH was found to be 0.043 mL/h. Also, the Activity on Cytochrome P450 1A2, at Cytochrome P450 1A1 and on Cytochrome P450 3A4 was below 10% in each case. The same compound yielded a logD in [2] of 2.02. In addition, in data set [3], the solubility is 457 µg/mL. Moreover, the metabolised at 20 min, 5 µM in [4] stood at 21%; in data set [5] it was 0%; in data set [8] it was 8%. Moreover, the Papp A→B at 2 h, 20 µM in data set [6] stood at 0.06 ×10⁻⁶ cm/s. Further, the IC50 in [7] was above 10 µM.
